The values below come from patent EP0512042B1, “GLP-1 ANALOGS USEFUL FOR DIABETES TREATMENT” (BUCKLEY, Douglas I., priority 1990, dated 1998).

One data set relates to RIN 1046-38 cells. Here is the method:
An additional test for potency of the compounds of the invention measures their ability to stimulate cAMP production in RIN 1046-38 cells. This assay can be conducted as follows:
On day 1, 5 x 10^5 RIN 1046-38 cells (Drucker, D.J., et al., Proc Natl Acad Sci USA (1987) 84:3434-3438) are seeded into individual wells of 6-well dishes with 2.5 mL M199 culture medium. On day 4, cells are re-fed with fresh medium and on day 5 the assay is performed. At this time there are ~2.0-2.5 x 10^6 cells per well. Assays are only performed on cell passage <24.
At time -60 min, monolayers are washed twice with 2.5 mL PBS, and medium is changed to 1.0 mL of DMEM medium plus 4.5 g/l glucose and 0.1% BSA (assay medium). At 0 time, medium is aspirated and fresh assay medium, 1.0 mL, containing test compound is added. Test compound is added in 50 ul volume of PBS plus 0.1% BSA; controls are added in vehicle alone. Incubation is continued for 0 to 60 min.
At termination, conditioned medium and monolayer are harvested to measure both extra- and intracellular cAMP content. For extracellular measurement, medium is removed and centrifuged to remove any cellular debris. For intracellular determination, after medium removal, 1.0 mL of ice cold 95% ethanol is added to monolayer. Cells are collected by scraping, lysed by two cycles of quick freeze/thawing using liquid N2, and cell debris then removed by centrifugation. Aliquots (1/40th well content) of conditioned medium and ethanol cell extract are measured in duplicate for cAMP levels using an RIA kit by the acetylated protocol.
Insulin secretion can also be measured by the method described by Holst, J.J., et al. FEBS Letters (1987) 211:169-174 (supra). Also useful as an assay for insulinotropic effect is the measurement of stimulation of adenylate cyclase in the RIN 1046-38 cell line. Drucker, D.J. et al., Proc Natl Acad Sci USA (1987) 84:3434-3438 (supra).

The nature of data set [1]: resistance to degradation in plasma, assay by RP-HPLC. The conditions noted are these: incubation in plasma for 60 minutes.
Procedure: In all assays, the plasma is prepared by collecting blood into heparinized tubes, placing the tubes on ice and centrifuging at about 3,000 rpm for 10 minutes in a tabletop centrifuge. The separated plasma is stored at 4°C.
In this assay, the analog is added to plasma for various times and recovered similarly to the method described above for radiolabel sequencing analysis. Specifically, the analog at a concentration of 100 nM in RIA buffer is spiked into 1 mL plasma to a final concentration of 1 nM and after incubation in 37°C circulating water bath for various preset times, the reaction is stopped by bringing the plasma to 0.1% (w/v) in bacitracin.
The peptides are then purified by Sep-Pak extraction as described above. The eluates are concentrated to about 1 mL on a Speed-vac, diluted with 1 mL distilled water, frozen at 80°C and lyophilized overnight. The powder is resuspended in 0.5 mL Buffer C (0.1% TFA in water) per mL starting plasma and 0.25 mL are injected on a Hewlett-Packard 1090L liquid chromatograph using an Alltech* C18 column (0.45 x 25 cm; 10 µm particle size) with a Brownlee 2 cm C18 guard column. The extraction is monitored at OD214 throughout the run and the solvent flow rate was 1 mL/minute. A gradient between Buffer C and Buffer D (0.1% TFA in acetonitrile) is set up over a 40 minute run time. The gradient starts at 35% D is held for the first 2 minutes after injection and then increased to 42% D over 24 minutes. The gradient is then increased to 60% D over the next two minutes, held at this level for 2 minutes and returned to 35% D over the next 2 minutes. The %D remains at 35% for the remaining 8 minutes of the run. Fractions are collected at 0.5 minute intervals for the first 30 minutes of each run and dried in a Speed-vac.

Where two headings read alike, the source gives them in different places. Ends that are not written are not given here.

On to “GLP-1(4-37) (FERHAEGTFTSDVSSYLEGQAAKEFIAWLVKGRG; Glucagon-like peptide 1; UniProt P01275 95-128, looked up, fragment) [reference compound]”, for which the “ED50 nM Duplicate Assays” value in the data set on RIN 1046-38 cells (first of the duplicate assays) was 130 nM; with RIN 1046-38 cells (second of the duplicate assays), 200 nM.
Turning to `CC[C@H](C)[C@H](NC(=O)[C@H](Cc1ccccc1)NC(=O)[C@H](CCC(=O)O)NC(=O)[C@H](CCCCN)NC(=O)[C@H](C)NC(=O)[C@H](C)NC(=O)[C@H](CCC(N)=O)NC(=O)CNC(=O)[C@H](CCC(=O)O)NC(=O)[C@H](CC(C)C)NC(=O)[C@H](Cc1ccc(O)cc1)NC(=O)[C@H](CO)NC(=O)[C@H](CO)NC(=O)[C@@H](NC(=O)[C@H](CC(=O)O)NC(=O)[C@H](CO)NC(=O)[C@@H](NC(=O)[C@H](Cc1ccccc1)NC(=O)[C@@H](NC(=O)CNC(=O)[C@H](CCC(=O)O)NC(=O)[C@H](C)NC(=O)[C@H](CCCCN)NC(C)=O)[C@@H](C)O)[C@@H](C)O)C(C)C)C(=O)N[C@@H](C)C(=O)N[C@@H](Cc1c[nH]c2ccccc12)C(=O)N[C@@H](CC(C)C)C(=O)N[C@H](C(=O)N[C@@H](CCCCN)C(=O)NCC(=O)N[C@@H](CCCNC(=N)N)C(=O)NCC(=O)O)C(C)C` [(N-acetyl-K)^7 GLP-1 (7-37)], the “Resistance to Degradation” value in data set [1] was “+”.
On to `CC[C@H](C)[C@H](NC(=O)[C@H](Cc1ccccc1)NC(=O)[C@H](CCC(=O)O)NC(=O)[C@H](CCCCN)NC(=O)[C@H](C)NC(=O)[C@H](C)NC(=O)[C@H](CCC(N)=O)NC(=O)CNC(=O)[C@H](CCC(=O)O)NC(=O)[C@H](CC(C)C)NC(=O)[C@H](Cc1ccc(O)cc1)NC(=O)[C@H](CO)NC(=O)[C@H](CO)NC(=O)[C@@H](NC(=O)[C@H](CC(=O)O)NC(=O)[C@H](CO)NC(=O)[C@@H](NC(=O)[C@H](Cc1ccccc1)NC(=O)[C@@H](NC(=O)CNC(=O)[C@H](CCC(=O)O)NC(=O)[C@H](C)NC(=O)[C@H](Cc1c[nH]cn1)NC(C)=O)[C@@H](C)O)[C@@H](C)O)C(C)C)C(=O)N[C@@H](C)C(=O)N[C@@H](Cc1c[nH]c2ccccc12)C(=O)N[C@@H](CC(C)C)C(=O)N[C@H](C(=O)N[C@@H](CCCCN)C(=O)NCC(=O)N[C@@H](CCCNC(=N)N)C(=O)NCC(=O)O)C(C)C` [(N-acetyl-H) ^7-GLP-1(7-37), (N-acetyl-H)^7-GLP-1(7-37)], for which, in data set [1], the “Resistance to Degradation” value is listed as “+”. Moreover, the “ED50 nM Duplicate Assays” value in the data set with RIN 1046-38 cells came to 15.5 nM.
On to “GLP-1(5-37) (ERHAEGTFTSDVSSYLEGQAAKEFIAWLVKGRG; Glucagon-like peptide 1; UniProt P01275 96-128, looked up, fragment) [reference compound]”, for which the figures for the “ED50 nM Duplicate Assays” value with RIN 1046-38 cells (first of the duplicate assays) and in the data set on RIN 1046-38 cells (second of the duplicate assays) were 150 nM and 750 to 970 nM, respectively.
`CC[C@H](C)[C@H](NC(=O)[C@H](Cc1ccccc1)NC(=O)[C@H](CCC(=O)O)NC(=O)[C@H](CCCCN)NC(=O)[C@H](C)NC(=O)[C@H](C)NC(=O)[C@H](CCC(N)=O)NC(=O)CNC(=O)[C@H](CCC(=O)O)NC(=O)[C@H](CC(C)C)NC(=O)[C@H](Cc1ccc(O)cc1)NC(=O)[C@H](CO)NC(=O)[C@H](CO)NC(=O)[C@@H](NC(=O)[C@H](CC(=O)O)NC(=O)[C@H](CO)NC(=O)[C@@H](NC(=O)[C@H](Cc1ccccc1)NC(=O)[C@@H](NC(=O)CNC(=O)[C@H](CCC(=O)O)NC(=O)[C@H](C)NC(=O)[C@H](Cc1c[nH]cn1)NC(C)C)[C@@H](C)O)[C@@H](C)O)C(C)C)C(=O)N[C@@H](C)C(=O)N[C@@H](Cc1c[nH]c2ccccc12)C(=O)N[C@@H](CC(C)C)C(=O)N[C@H](C(=O)N[C@@H](CCCCN)C(=O)NCC(=O)N[C@@H](CCCNC(=N)N)C(=O)NCC(=O)O)C(C)C` [(N-isopropyl-H) ^7-GLP-1(7-37), (N-isopropyl-H)^7-GLP-1(7-37)]: the “Resistance to Degradation” value in data set [1] is listed as “+”. Further, in the data set with RIN 1046-38 cells, the “ED50 nM Duplicate Assays” value is 15.5 nM.
For the compound GLP-1(7-37), the “ED50 nM Duplicate Assays” value in the data set on RIN 1046-38 cells (first of the duplicate assays) was 0.16 nM; with RIN 1046-38 cells (second of the duplicate assays) it was 0.25 nM.
On to GLP-1(1-37) [reference compound], for which the “ED50 nM Duplicate Assays” value in the data set with RIN 1046-38 cells (first of the duplicate assays) is reported as over 1000 nM; in the data set on RIN 1046-38 cells (second of the duplicate assays), 2900 nM.
Consider `CC[C@H](C)[C@H](NC(=O)[C@H](Cc1ccccc1)NC(=O)[C@H](CCC(=O)O)NC(=O)[C@H](CCCCN)NC(=O)[C@H](C)NC(=O)[C@H](C)NC(=O)[C@H](CCC(N)=O)NC(=O)CNC(=O)[C@H](CCC(=O)O)NC(=O)[C@H](CC(C)C)NC(=O)[C@H](Cc1ccc(O)cc1)NC(=O)[C@H](CO)NC(=O)[C@H](CO)NC(=O)[C@@H](NC(=O)[C@H](CC(=O)O)NC(=O)[C@H](CO)NC(=O)[C@@H](NC(=O)[C@H](Cc1ccccc1)NC(=O)[C@@H](NC(=O)CNC(=O)[C@H](CCC(=O)O)NC(=O)[C@H](C)NC(=O)[C@@H](N)CCCCN)[C@@H](C)O)[C@@H](C)O)C(C)C)C(=O)N[C@@H](C)C(=O)N[C@@H](Cc1c[nH]c2ccccc12)C(=O)N[C@@H](CC(C)C)C(=O)N[C@H](C(=O)N[C@@H](CCCCN)C(=O)NCC(=O)N[C@@H](CCCNC(=N)N)C(=O)NCC(=O)O)C(C)C` [(K)^7-GLP-1(7-37)], for which, in data set [1], the “Resistance to Degradation” value is on record as “-”. Moreover, in the data set on RIN 1046-38 cells, the “ED50 nM Duplicate Assays” value amounted to 350.0 nM.
In the case of “GLP-1(3-37) (EFERHAEGTFTSDVSSYLEGQAAKEFIAWLVKGRG; Glucagon-like peptide 1; UniProt P01275 94-128, looked up, fragment) [reference compound]”, the “ED50 nM Duplicate Assays” value in the data set with RIN 1046-38 cells (first of the duplicate assays) was 70 nM; in the data set with RIN 1046-38 cells (second of the duplicate assays), 81 nM.
Regarding `CC[C@H](C)[C@H](NC(=O)[C@H](Cc1ccccc1)NC(=O)[C@H](CCC(=O)O)NC(=O)[C@H](CCCCN)NC(=O)[C@H](C)NC(=O)[C@H](C)NC(=O)[C@H](CCC(N)=O)NC(=O)CNC(=O)[C@H](CCC(=O)O)NC(=O)[C@H](CC(C)C)NC(=O)[C@H](Cc1ccc(O)cc1)NC(=O)[C@H](CO)NC(=O)[C@H](CO)NC(=O)[C@@H](NC(=O)[C@H](CC(=O)O)NC(=O)[C@H](CO)NC(=O)[C@@H](NC(=O)[C@H](Cc1ccccc1)NC(=O)[C@@H](NC(=O)CNC(=O)[C@H](CCC(N)=O)NC(=O)[C@H](C)NC(=O)[C@@H](N)Cc1c[nH]cn1)[C@@H](C)O)[C@@H](C)O)C(C)C)C(=O)N[C@@H](C)C(=O)N[C@@H](Cc1c[nH]c2ccccc12)C(=O)N[C@@H](CC(C)C)C(=O)N[C@H](C(=O)N[C@@H](CCCCN)C(=O)NCC(=O)N[C@@H](CCCNC(=N)N)C(=O)NCC(=O)O)C(C)C` [(Q)^9 GLP-1 (7-37)], the “Resistance to Degradation” value in data set [1] is “-”.
Regarding “HSQGTFTSDYSKYLDGQAAKEFIAWLVKGRG [(S)^8(Q)^9(Y)^16(K)^18(D)^21-GLP-1(7-37)]”, the “Resistance to Degradation” value in data set [1] is “-”. Moreover, in the data set on RIN 1046-38 cells, the “ED50 nM Duplicate Assays” value was determined as 0.31 nM.
As to “gastric inhibitory peptide [GIP, reference compound]”, the “ED50 nM Duplicate Assays” value was 10.0 nM with RIN 1046-38 cells (first of the duplicate assays) and 37.5 nM in the data set with RIN 1046-38 cells (second of the duplicate assays).
On to `CC[C@H](C)[C@H](NC(=O)[C@H](Cc1ccccc1)NC(=O)[C@H](CCC(=O)O)NC(=O)[C@H](CCCCN)NC(=O)[C@H](C)NC(=O)[C@H](C)NC(=O)[C@H](CCC(N)=O)NC(=O)CNC(=O)[C@H](CCC(=O)O)NC(=O)[C@H](CC(C)C)NC(=O)[C@H](Cc1ccc(O)cc1)NC(=O)[C@H](CO)NC(=O)[C@H](CO)NC(=O)[C@@H](NC(=O)[C@H](CC(=O)O)NC(=O)[C@H](CO)NC(=O)[C@@H](NC(=O)[C@H](Cc1ccccc1)NC(=O)[C@@H](NC(=O)CNC(=O)[C@H](CCC(=O)O)NC(=O)[C@H](C)NC(=O)[C@@H](N)Cc1ccc(O)cc1)[C@@H](C)O)[C@@H](C)O)C(C)C)C(=O)N[C@@H](C)C(=O)N[C@@H](Cc1c[nH]c2ccccc12)C(=O)N[C@@H](CC(C)C)C(=O)N[C@H](C(=O)N[C@@H](CCCCN)C(=O)NCC(=O)N[C@@H](CCCNC(=N)N)C(=O)NCC(=O)O)C(C)C` [(Y)^7-GLP-1(7-37)], for which the “Resistance to Degradation” value in data set [1] was “-”. In addition, in the data set with RIN 1046-38 cells, the “ED50 nM Duplicate Assays” value came out at 5.0 nM.
